Legend:
[1] = biological target: Human ACC1 (Homo sapiens (Human), UniProt Q13085); experiment: ACC1 enzymatic assay (ADP-Glo); format: biochemical; design: key to Compound IC50 (M) ACC1: *: No detectable inhibition or compound activity; settings: recombinant human ACC1 5 nM; 10 concentrations from 300 μM; Runs 1-3
Experimental: Human ACC1 (Cat #50202 Lot #120830) and ACC2 (Cat #50201 Lot #160217) were obtained from BPS Biosciences, San Diego, CA 92121. Human ACC1 had C-terminal flag and His-tags with a MW of 270 KDa after purification from Baculovirus infected Sf9 cell expression system and came as a solution in 50 mM Tris-HCl, pH 8.0, 500 mM NaCl, 10% glycerol, 1 mM DTT, 100 μg/ml FLAG peptide with 70% purity. The stock concentration was 0.25 mg/ml corresponding to 0.926 μM. Human ACC2 was also purified from Baculovirus infected Sf9 expression system. […] The stock concentration was 0.1 mg/ml corresponding to 0.36 μM. The assay buffer for measuring the activity of ACC contained: 30 mM HEPES (pH 7.4), 2 mM MgCl2, 0.01% Brij35, 2 mM DTT, 1% DMSO (solvent for compound). For ACC1 and ACC2 assays, the following concentrations of substrate and cofactors were used: 12 mM NaHCO3, 10 μM acetyl CoA, 10 μM ATP, and 2 mM K-citrate. The recombinant human enzyme was used at 5 nM for ACC1 and 1 nM for ACC2. In brief, enzyme alone in the above buffer without substrate was used for background. All test materials were dissolved in 100% DMSO using acoustic technology (Echo550). The prepared solution was preincubated for 15 min followed by the addition of 5 μL/well of ADP standard. ATP was then added to start the reaction. The assay contents were spun and briefly shaken followed by incubation at room temperature for 1 h. At the end of completion of assay, 5 μL of ADP-Glo was added to each well to stop the reaction. The contents were mixed, spun and incubated at room temperature for 40 min followed by the addition of 10 μL/well of ADP detection reagent. The contents were spun, mixed and covered with plastic to measure luminescence. […] The light generated, measured in a luminometer, correlates to the amount of ADP generated in the ACC assay, which is indicative of ACC activity.
The enzyme concentrations for ACC1 and ACC2 were 5 nM and 1 nM, respectively.
Data represent nM or μM ADP produced, % Activity (relative to no inhibitor controls), and curve fits were performed by GraphPad Prism software. […]

[2] = test system: bone marrow derived macrophages (BMDMs); experiment: LPS-induced glycolysis in bone marrow derived macrophages (Seahorse); format: cell-based, mouse; settings: LPS + Compound I-1 50 μM, 4 hours
Experimental: (§1) Example 10: Treatment of bone marrow derived macrophages Mϕ (BMDMs) with Compound I-1 suppresses lipopolysaccharide (LPS)-induced glycolysis and inflammation. Macrophage were isolated as follows: femurs and tibia were collected from mice, cleaned of any soft tissues and the ends were cut off from each bone. The tibia and femur were then transferred into 1.5 mL Eppendorf tubes and the marrow was extracted via centrifugation (1900 g×5 min), resuspended in DMEM and strained through a 40 μm strainer into a 50 ml falcon tube. The strainer was rinsed with an additional 40 mL of DMEM, the cell suspension was transferred to a T175 flask, an additional 60 mL of DMEM was added and the cells were cultured at 37° C. for 4 hours. Differentiation was initiated by adding 20 mL of L929 fibroblast conditioned media and 12 mL was plated on 100 mm dishes. The cells were then left for 7 days to differentiate into macrophages. […] Changes in gene expression were calculated using 2-delta cT method. Macrophage glycolytic rates were assessed using a Seahorse Bioanalyzer (XFe96, Agilent Scientific Instruments). […] The following day cells were serum-starved for 2 hours then treated with LPS (100 ng/mL) and Compound I-1 (50 μM) and glycolytic rate was analyzed (Agilent Seahorse XFp Cell Energy Phenotype Test Kit, Cat #103275-100).

[3] = test system: bone marrow derived macrophages (BMDMs); experiment: LPS-induced Il-6 and Il-1b mRNA in BMDMs (RT-qPCR); format: cell-based, mouse; settings: LPS 10 ng/mL + Compound I-1 50 μM, 4 hours
Experimental: as §1

CC(C)(CCCCc1ccc(CCCCC(C)(C)C(=O)O)cc1)C(=O)O [Compound I-1, 6-[4-(5-carboxy-5-methylhexyl)-phenyl]-2,2-dimethylhexanoic acid]
Compound IC50 (M) ACC1 [1]: *
LPS-induced glycolysis (glycolytic rate, Seahorse) [2]: suppression
Il-1b mRNA (marker of inflammation) [3]: suppression
Il-6 mRNA (marker of inflammation) [3]: suppression

— patent publication US20240398737A1, “FUNCTIONALIZED LONG-CHAIN HYDROCARBON MONO- AND DI-CARBOXYLIC ACIDS AND DERIVATIVES THEREOF, AND THEIR USE FOR THE PREVENTION OR TREATMENT OF DISEASE” (Espervita Therapeutics, Inc., priority 2021, published 2024)
